Patent publication US11433048B2, “CXCR4 receptor-binding compounds useful for increasing interferon level” (CENTRE NATIONAL de la RECHERCHE SCIENTIFIQUE, priority 2016, dated 2022)
Where a name gives a salt, the structure may show the parent alone. Read-outs that look alike come from different tables or passages of the source.

How the values were obtained:
HIV-activated pDC [1] = format: cell-based, human
HIV-activated pDC [2] = conditions: ELISA, AMD3100 20 μM pre-treatment, then CB, HIV overnight
[3] = AMD3100 20 μM pre-incubation, histamine or CB 10 μM, HIV-X4 overnight, normalized to RPL13A
[4] = AMD3100 alone, HIV-stimulated pDC
[5] = AMD-3100 20 μM, then CB 10 μM, HIV overnight, normalized to RPL13A

c1cc(CN2CCCNCCNCCCNCC2)ccc1CN1CCCNCCNCCCNCC1 [AMD3100, plerixafor]
IFN-a mRNA expression inhibited by histamine or CB in HIV-activated pDC (FIG. 1) (HIV-activated pDC [1]; [3]): could restore | IFN-β mRNA expression inhibited by histamine or CB in HIV-activated pDC (FIG. 1) (HIV-activated pDC [1]; [3]): could restore | TRAIL mRNA expression inhibited by histamine or CB in HIV-activated pDC (FIG. 1) (HIV-activated pDC [1]; [3]): could restore | biological activities of histamine and CB on HIV activated-pDC (HIV-activated pDC [1]; AMD3100 (20 μM) 1 hour, then histamine or CB (10 μM) 1 hour, HIV-1 overnight): drastically abolished | TRAIL expression by HIV-activated pDC (HIV-activated pDC [1]; [4]): did not block | type I IFN expression by HIV-activated pDC (HIV-activated pDC [1]; [4]): did not block | IFN-stimulated gene 56 (ISG56) mRNA expression in HIV-activated pDC (restoration, FIG. 3A) (HIV-activated pDC [1]; [5]): confirmed | IFN-γ mRNA expression in HIV-activated pDC (restoration, FIGS. 3A-3C) (HIV-activated pDC [1]; [5]): confirmed | IL-6 mRNA expression in HIV-activated pDC (restoration, FIG. 3C) (HIV-activated pDC [1]; [5]): confirmed | IFN-a production inhibited by histamine or CB in HIV-activated pDC (FIG. 2) (HIV-activated pDC [2]): could restore

NC(=NCc1ccc(Cl)cc1)SCCCc1cnc[nH]1 [CB, clobenpropit dihydrobromide]
production of IFN-I by HIV-stimulated pDC (HIV-activated pDC [1]; amine-type compounds, 10 μM): inhibit

Cl.Cl.NCCc1c[nH]cn1 [histamine, Histamine dihydrochloride]
production of IFN-I by HIV-stimulated pDC (HIV-activated pDC [1]): inhibit
